Reference: patent US20240415819A1, “MACROCYCLIC COMPOUNDS AS PROTEASOME SUBUNIT BETA TYPE-5 INHIBITORS” (Lead Discovery Center GmbH, priority 2021, published 2024)

Molecular target: T1, β5 subunit of the human immunoproteasome (IPS) (Homo sapiens, UniProt P28062)
T1 construct: purchased Boston Biochem E-370
Experiment: β5 inhibition assay, human immunoproteasome (Suc-LLVY-AMC)
Format: biochemical
Conditions: IC50 class, Suc-LLVY-AMC substrate
How it was run: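 β5 activity is read as liberated AMC fluorescence (355/460 nm) after 4 h dark reaction at RT with 22.6 μM Suc-LLVY-AMC, stopped by 1 μM bortezomib. Beforehand, 1 nM human IPS and compound sat 10 min at RT in HEPES pH 7.5 buffer containing NaCl, 0.02% SDS and DTT.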

Row | IC50 | SMILES
1 | < 100 nM | Cc1ccc2cc1CNC(=O)[C@H](CCc1ccccc1)NC(=O)[C@@H](Nc1nc3ccccc3[nH]1)CC(=O)N1CCCC(CCO2)C1 (stereo partly drawn) [Compound 45, (9S,12S)-12-((1H-benzo[d]imidazol-2-yl)amino)-5^4-methyl-9-phenethyl-4-oxa-7,10-diaza-1(3,1)-piperidina-5(1,3)-benzenacyclotetradecaphane-8,11,14-trione]
2 | < 100 nM | Cc1ccc2cc1CNC(=O)[C@H](CCc1ccccc1)NC(=O)CCCCC(=O)N1CCCC(CCO2)C1 (stereo partly drawn) [Compound 16, (9S)-5^4-methyl-9-phenethyl-4-oxa-7,10-diaza-1(3,1)-piperidina-5(1,3)-benzenacyclohexadecaphane-8,11,16-trione]
3 | < 100 nM | Cc1ccc2cc1CNC(=O)[C@H](CCc1ccccc1)NC(=O)[C@@H](Nc1ccccn1)CC(=O)N1CCCC(CCO2)C1 (stereo partly drawn) [Compound 36, (9S,12S)-5^4-methyl-9-phenethyl-12-(pyridin-2-ylamino)-4-oxa-7,10-diaza-1(3,1)-piperidina-5(1,3)-benzenacyclotetradecaphane-8,11,14-trione]
4 | < 100 nM | Cc1ccc2cc1CNC(=O)[C@H](CCc1ccccc1)NC(=O)[C@@H](NC(=O)c1ccccc1)CC(=O)N1CCCC(CCO2)C1 (stereo partly drawn) [Compound 26, N-((9S,12S)-5^4-methyl-8,11,14-trioxo-9-phenethyl-4-oxa-7,10-diaza-1(3,1)-piperidina-5(1,3)-benzenacyclotetradecaphane-12-yl)benzamide]
5 | < 100 nM | Cc1ccc2cc1CNC(=O)[C@H](CCc1ccccc1)NC(=O)[C@@H](N1C(=O)CCC1=O)CC(=O)N1CCCC(CCO2)C1 (stereo partly drawn) [Compound 43, (9S,12S)-12-(2,5-dioxopyrrolidin-1-yl)-5^4-methyl-9-phenethyl-4-oxa-7,10-diaza-1(3,1)-piperidina-5(1,3)-benzenacyclotetradecaphane-8,11,14-trione]
6 | < 100 nM | Cc1ccc2cc1CNC(=O)C(CCc1cccnc1)NC(=O)CCC(=O)N1CCCC(CCO2)C1 (centres unmarked) [Compound 51, 5^4-methyl-9-(2-(pyridin-3-yl)ethyl)-4-oxa-7,10-diaza-1(3,1)-piperidina-5(1,3)-benzenacyclotetradecaphane-8,11,14-trione]
7 | < 100 nM | Cc1ccc2cc1CNC(=O)[C@H](Cc1ccccc1)NC(=O)CCC(=O)N1CCCC(CCO2)C1 (stereo partly drawn) [Compound 79, (9S)-9-benzyl-5^4-methyl-4-oxa-7,10-diaza-1(3,1)-piperidina-5(1,3)-benzenacyclotetradecaphane-8,11,14-trione]
8 | < 100 nM | Cc1ccc2cc1CNC(=O)[C@H](CCc1ccccc1)NC(=O)[C@@H](NC(=O)c1ccccn1)CC(=O)N1CCCC(CCO2)C1 (stereo partly drawn) [Compound 40, N-((9S,12S)-5^4-methyl-8,11,14-trioxo-9-phenethyl-4-oxa-7,10-diaza-1(3,1)-piperidina-5(1,3)-benzenacyclotetradecaphane-12-yl)picolinamide]
9 | < 100 nM | Cc1ccc2cc1CNC(=O)[C@H](CCc1ccccc1)NC(=O)CCC(=O)N1CCCC(CCO2)C1 (stereo partly drawn) [Compound 13, (9S)-5^4-methyl-9-phenethyl-4-oxa-7,10-diaza-1(3,1)-piperidina-5(1,3)-benzenacyclotetradecaphane-8,11,14-trione]
10 | < 100 nM | Cc1ccc2cc1CNC(=O)[C@H](CCc1ccccc1)NC(=O)[C@@H](NS(C)(=O)=O)CC(=O)N1CCCC(CCO2)C1 (stereo partly drawn) [Compound 37, N-((9S,12S)-5^4-methyl-8,11,14-trioxo-9-phenethyl-4-oxa-7,10-diaza-1(3,1)-piperidina-5(1,3)-benzenacyclotetradecaphane-12-yl)methanesulfonamide]
11 | < 100 nM | Cc1ccc2cc1CNC(=O)[C@H](CCc1ccccc1)NC(=O)[C@@H](NC(=O)c1ccncc1)CC(=O)N1CCCC(CCO2)C1 (stereo partly drawn) [Compound 42, N-((9S,12S)-5^4-methyl-8,11,14-trioxo-9-phenethyl-4-oxa-7,10-diaza-1(3,1)-piperidina-5(1,3)-benzenacyclotetradecaphane-12-yl)isonicotinamide]
